According to ChEMBL document CHEMBL5046226, “Identification of (6S)-cyclopropyl-6,7-dihydropyrazolo[1,5-a]pyrazine-5(4H)-carboxamines as new HBV capsid assembly modulators” (Eur J Med Chem, 2022):

What was measured:
[1] = Cytotoxicity against human HepG2.2.15 cells assessed as reduction in cell viability by CellTiter-Glo reagent based assay; format: toxicity, HepG2 2.2.15
Hepatitis B virus = test: Antiviral activity against Hepatitis B virus infected in human HepG2.2.15 cells; format: functional, organism-based
[2] = Half life in ICR mouse at 50 mg/kg, po; format: ADME, organism-based; details: in vivo
[3] = AUC (0 to infinity) in ICR mouse at 50 mg/kg, po; format: ADME, organism-based; set-up: route oral, time infinity, dose 50 mg/kg; details: in vivo
[4] = Tmax in ICR mouse at 50 mg/kg, po; format: ADME, organism-based; details: in vivo
[5] = Cmax in ICR mouse at 50 mg/kg, po; format: ADME, organism-based; set-up: route oral, dose 50 mg/kg; details: in vivo

Row | SMILES | CC50 [1] [nM] | EC50 (Hepatitis B virus) [nM] | half-life [2] [min] | AUC(0-inf) [3] [ng·h/mL] | Tmax [4] [min] | Cmax [5] [ng/mL]
1 | C[C@H]1Cn2ncc(N3CC(c4ccccc4)CC3=O)c2CN1C(=O)NCc1cc(F)c(F)c(F)c1 (some centres undefined) | > 2000 | > 2000 |  |  |  | 
2 | O=C1CC(c2ccc(F)cc2)CN1c1cnn2c1CN(C(=O)Nc1cc(F)c(F)c(F)c1)C(C1CC1)C2 (centres undefined) | 32000 | 23 |  |  |  | 
3 | C[C@H]1Cn2ncc(N3CC(c4ccccc4)CC3=O)c2CN1S(=O)(=O)Nc1cc(F)c(F)c(F)c1 (some centres undefined) | > 2000 | > 2000 |  |  |  | 
4 | O=C1CC(c2ncco2)CN1c1cnn2c1CN(C(=O)Nc1cc(F)c(F)c(F)c1)C(C1CC1)C2 (centres undefined) | > 200000 | 9 | 222 | 12200 | 15 | 8740
5 | O=C1CC(c2ccc(F)cn2)CN1c1cnn2c1CN(C(=O)Nc1cc(F)c(F)c(F)c1)C(C1CC1)C2 (centres undefined) | 38500 | 15 |  |  |  | 
6 | O=C1CC(c2ncc(F)cn2)CN1c1cnn2c1CN(C(=O)Nc1cc(F)c(F)c(F)c1)C(C1CC1)C2 (centres undefined) | 115000 | 20 |  |  |  | 
7 | N#CC1CC(=O)N(c2cnn3c2CN(C(=O)Nc2cc(F)c(F)c(F)c2)C2(CC2)C3)C1 (centres undefined) | > 200000 | 124 |  |  |  | 
8 | O=C1OC(c2ccccc2)CN1c1cnn2c1CN(C(=O)Nc1cc(F)c(F)c(F)c1)C(C1CC1)C2 (centres undefined) | 7410 | 18 |  |  |  | 
9 | Cc1nc(C2CC(=O)N(c3cnn4c3CN(C(=O)Nc3cc(F)c(F)c(F)c3)C(C3CC3)C4)C2)no1 (centres undefined) | > 200000 | 16 | 202 | 3860 | 19.8 | 3860
10 | C[C@H]1Cn2ncc(N3CC(c4ccccc4)CC3=O)c2CN1C(=S)Nc1cc(F)c(F)c(F)c1 (some centres undefined) | > 2000 | > 2000 |  |  |  | 
11 | O=C1CC(c2ncccn2)CN1c1cnn2c1CN(C(=O)Nc1cc(F)c(F)c(F)c1)C(C1CC1)C2 (centres undefined) | > 200000 | 15 | 52.2 | 5070 | 15 | 5980
12 | O=C1CC(c2nccs2)CN1c1cnn2c1CN(C(=O)Nc1cc(F)c(F)c(F)c1)C(C1CC1)C2 (centres undefined) | 115000 | 11 |  |  |  | 
13 | C[C@H]1Cn2ncc(N3CC(c4ccccc4)CC3=O)c2CN1C(=O)Nc1cc(F)c(F)c(F)c1 (some centres undefined) | 12800 | 9 | 136 | 6510 | 15 | 3130
14 | CC1(C)CN(C(=O)Nc2cc(F)c(F)c(F)c2)Cc2c(N3CC(C#N)CC3=O)cnn21 (centres undefined) | > 200000 | 38 |  |  |  | 
15 | O=C1c2ccccc2CN1c1cnn2c1CN(C(=O)Nc1cc(F)c(F)c(F)c1)C(C1CC1)C2 (centres undefined) | 38500 | 83 |  |  |  | 
16 | O=C(Nc1cc(F)c(F)c(F)c1)N1CCCn2ncc(N3CC(c4ccccc4)CC3=O)c2C1 (centres undefined) | > 2000 | > 2000 |  |  |  | 
17 | O=C1CC(c2ccccc2)CN1c1cnn2c1CN(C(=O)Nc1cc(F)c(F)c(F)c1)C1CCCCC12 (centres undefined) | 21400 | 27 |  |  |  | 
18 | O=C1CC(c2ccccn2)CN1c1cnn2c1CN(C(=O)Nc1cc(F)c(F)c(F)c1)C(C1CC1)C2 (centres undefined) | 96200 | 12 |  |  |  | 

Row | SMILES | CC50 [1] [nM] | EC50 (Hepatitis B virus) [nM] | half-life [2] [min] | AUC(0-inf) [3] [ng·h/mL] | Tmax [4] [min] | Cmax [5] [ng/mL]
19 | CC1CCn2ncc(N3CC(c4ccccc4)CC3=O)c2CN1C(=O)Nc1cc(F)c(F)c(F)c1 (centres undefined) | > 2000 | > 2000 |  |  |  | 
20 | O=C1NC(c2ccccc2)CN1c1cnn2c1CN(C(=O)Nc1cc(F)c(F)c(F)c1)C(C1CC1)C2 (centres undefined) | 38500 | 3 |  |  |  | 
21 | O=C1CC(c2cnc(C(F)(F)F)s2)CN1c1cnn2c1CN(C(=O)Nc1cc(F)c(F)c(F)c1)C(C1CC1)C2 (centres undefined) | 38500 | 27 |  |  |  | 
22 | O=C(Nc1cc(F)c(F)c(F)c1)N1Cc2c(-c3ccc(F)cc3F)cnn2CC1C1CC1 (centres undefined) | 32000 | 23 |  |  |  | 
23 | O=C1CC(Oc2ncc(F)cn2)CN1c1cnn2c1CN(C(=O)Nc1cc(F)c(F)c(F)c1)C(C1CC1)C2 (centres undefined) | 96200 | 9 |  |  |  | 
24 | CC1CN(C(=O)Nc2cc(F)c(F)c(F)c2)Cc2c(N3CC(C#N)CC3=O)cnn21 (centres undefined) | 115000 | 62 |  |  |  | 
25 | O=C1CC(c2cnco2)CN1c1cnn2c1CN(C(=O)Nc1cc(F)c(F)c(F)c1)C(C1CC1)C2 (centres undefined) | 139000 | 16 |  |  |  | 
26 | O=C1OC(c2ccc(F)cc2)CN1c1cnn2c1CN(C(=O)Nc1cc(F)c(F)c(F)c1)C(C1CC1)C2 (centres undefined) | 3560 | 11 |  |  |  | 
27 | N#CC1CC(=O)N(c2cnn3c2CN(C(=O)Nc2cc(F)c(F)c(F)c2)C(C2CC2)C3)C1 (centres undefined) | > 200000 | 12 | 278 | 10600 | 15 | 6400
28 | O=C1CC(C(F)(F)F)CN1c1cnn2c1CN(C(=O)Nc1cc(F)c(F)c(F)c1)C(C1CC1)C2 (centres undefined) | 115000 | 34 |  |  |  | 
29 | O=C1CC(c2ccccc2)CN1c1cnn2c1CN(C(=O)Nc1cc(F)c(F)c(F)c1)C(C1CC1)C2 (centres undefined) | 12800 | 6 |  |  |  | 
30 | CC1(C)CC(=O)N(c2cnn3c2CN(C(=O)Nc2cc(F)c(F)c(F)c2)C(C2CC2)C3)C1 (centres undefined) | 115000 | 20 |  |  |  | 
31 | O=C1CC(Oc2ncccn2)CN1c1cnn2c1CN(C(=O)Nc1cc(F)c(F)c(F)c1)C(C1CC1)C2 (centres undefined) | > 200000 | 16 | 57 | 4020 | 15 | 5270
32 | O=C1CC(c2ccccc2)CN1c1cnn2c1CN(C(=O)Nc1cc(F)c(F)c(F)c1)C(Cc1ccccc1)C2 (centres undefined) | > 2000 | > 2000 |  |  |  | 
33 | Cc1cnc(C2CC(=O)N(c3cnn4c3CN(C(=O)Nc3cc(F)c(F)c(F)c3)C(C3CC3)C4)C2)s1 (centres undefined) | 96200 | 18 |  |  |  | 
34 | C[C@H]1Cn2ncc(N3CC(c4ccccc4)CC3=O)c2CN1CC(=O)Nc1cc(F)c(F)c(F)c1 (some centres undefined) | > 2000 | > 2000 |  |  |  | 
35 | O=C(Nc1cc(F)c(F)c(F)c1)N1Cc2c(-c3ccc(F)cc3)cnn2CC1C1CC1 (centres undefined) | 38500 | 4 |  |  |  | 
